Consider 2 compounds from PMC11843629, “Development of ketobenzothiazole-based peptidomimetic TMPRSS13 inhibitors with low nanomolar potency” (Journal of Enzyme Inhibition and Medicinal Chemistry, 2025).

In one experiment the target is T1, WT TMPRSS13 (Homo sapiens, UniProt Q9BYE2).
T1 construct: the full length TMPRSS13 (TMPRSS13-WT); expressed in transfected cells; host or cells: Vero C1008 (Vero E6) cells
T1 sequence (Q9BYE2 326-567 isoform Q9BYE2-6 limits assumed): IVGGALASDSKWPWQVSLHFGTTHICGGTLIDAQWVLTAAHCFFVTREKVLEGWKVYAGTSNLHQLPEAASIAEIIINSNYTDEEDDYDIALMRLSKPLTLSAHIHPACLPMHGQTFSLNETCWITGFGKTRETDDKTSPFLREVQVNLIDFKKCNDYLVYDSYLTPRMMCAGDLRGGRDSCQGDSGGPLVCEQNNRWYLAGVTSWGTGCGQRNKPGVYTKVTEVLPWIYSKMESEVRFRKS
The experiment is described as follows: In cellulo inhibitory activity in TMPRSS13-transfected Vero cells. The format is cell-based. As to conditions: 24 h; for remaining activity at 10 µM: 10 µM compound, media, relative to DMSO, read-out: residual activity of TMPRSS13; for IC50: Boc-RVRR-AMC, read-out: IC50 in cellulo TMPRSS13 inhibition. How it is done: Vero C1008 cells were grown in 12-well plates (200K cells per well) and transfected for 24 h via Lipofectamine 3000 (Life Technologies) with one of the following plasmids: pcDNA3.1 (empty vector, EV), pcDNA3.1-TMPRSS13 WT or pcDNA3.1-TMPRSS13-AFAAS-6His. The cells were then washed 2 times with PBS before HCell-100 medium (Wisent) containing the indicated concentrations of each compound or the control condition (0.01% DMSO) was added. After 24 h of incubation with the compounds, the medium was harvested, and 90 μL was placed in 96-well plate wells with 10 µL of 200 μM Boc-RVRR-AMC. Fluorescence was acquired at room temperature in an FLx800 TBE microplate reader, with excitation at 360 nm and emission at 460 nm. The background was then subtracted by removing the signal recorded with the cells transfected with the empty vector (pcDNA3.1). Proteolytic activity results are represented as a percentage of the DMSO-treated condition. The IC50 was calculated via nonlinear regression of the compound concentration relative to the velocity.

Experiment [1] addresses T2, matriptase (Homo sapiens, UniProt Q9Y5Y6).
T2 construct: made in house
T2 sequence (Q9Y5Y6 1-855): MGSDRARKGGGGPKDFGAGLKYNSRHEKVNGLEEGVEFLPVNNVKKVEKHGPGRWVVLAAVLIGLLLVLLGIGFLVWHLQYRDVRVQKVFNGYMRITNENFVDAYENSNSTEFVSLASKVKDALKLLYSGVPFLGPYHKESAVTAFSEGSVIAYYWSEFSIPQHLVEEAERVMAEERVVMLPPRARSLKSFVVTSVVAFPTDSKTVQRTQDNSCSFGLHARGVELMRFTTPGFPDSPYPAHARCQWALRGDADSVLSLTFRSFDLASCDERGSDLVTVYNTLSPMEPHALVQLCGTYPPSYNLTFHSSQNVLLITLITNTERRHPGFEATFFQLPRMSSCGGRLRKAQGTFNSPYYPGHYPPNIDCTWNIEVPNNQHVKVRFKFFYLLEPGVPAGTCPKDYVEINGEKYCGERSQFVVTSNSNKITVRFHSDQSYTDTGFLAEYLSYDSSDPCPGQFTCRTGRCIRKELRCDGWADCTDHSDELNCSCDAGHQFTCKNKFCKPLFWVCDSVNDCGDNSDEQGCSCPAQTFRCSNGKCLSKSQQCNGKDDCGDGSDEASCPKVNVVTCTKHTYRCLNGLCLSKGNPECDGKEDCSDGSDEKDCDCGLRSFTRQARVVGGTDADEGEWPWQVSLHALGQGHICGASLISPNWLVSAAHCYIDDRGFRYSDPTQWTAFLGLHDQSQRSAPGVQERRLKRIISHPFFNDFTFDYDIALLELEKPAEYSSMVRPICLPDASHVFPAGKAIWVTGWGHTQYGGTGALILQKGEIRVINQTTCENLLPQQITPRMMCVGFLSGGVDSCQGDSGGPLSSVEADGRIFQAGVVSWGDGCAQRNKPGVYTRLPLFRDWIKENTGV
More on the design: method as in Shapira et al. 2022 Nature. As to conditions: ref Shapira et al. 2022 Nature; cited from earlier work.

The target of experiment [2] is T3, thrombin (Homo sapiens, UniProt P00734).
T3 construct: purchased MilliporeSigma
More on the design: method as in Shapira et al. 2022 Nature. Conditions: ref Shapira et al. 2022 Nature; cited from earlier work.

Experiment [3] has as its target T4, furin (Homo sapiens, UniProt P09958).
T4 construct: purchased R&D Systems
On the set-up: method as in Shapira et al. 2022 Nature. Conditions: ref Shapira et al. 2022 Nature; cited from earlier work.

For experiment [4], the target named is T2, matriptase. The experiment in a line: In vitro inhibition assay, matriptase, Boc-QAR-AMC. The format is biochemical. As to conditions: Morrison Ki equation, tight-binding. How it is done:
(§1) Recombinant TMPRSS13-AFAAS-6His (this study) and matriptase[34] were expressed and purified as described. Recombinant human furin, Factor Xa (R&D Systems) and thrombin (MilliporeSigma) were obtained from commercial sources. Assays were performed in a buffer composed of 50 mM HEPES pH 7.4, 1 mM β-mercaptoethanol, 1 mM CaCl2 and 500 μg/ml BSA for furin and 50 mM HEPES pH 7.4, 150 mM NaCl and 0.1% BSA for other proteases. Assays were performed at room temperature using fluorogenic substrates (Boc-RVRR-AMC for furin and TMPRSS13, Boc-QAR-AMC for other proteases). The enzymatic activity was measured via fluorescence (excitation at 360 nm and emission at 460 nm) at room temperature using an HTX Synergy microplate reader (Agilent). Kis for TMPRSS13 and Factor Xa (FXa) were derived from IC50 dose–response curves using the Cheng-Prusoff equation[35] for reversible competitive inhibitors. For matripase, a plot of the enzyme velocity as a function of the inhibitor concentration was fitted with nonlinear regression analysis via the Morrison Ki equation[36] for competitive tight-binding inhibitors.

For experiment [5], the target named is T3, thrombin. The experiment in a line: In vitro inhibition assay, thrombin, Boc-QAR-AMC. The format is biochemical. How it is done:
as §1

Experiment [6] addresses T4, furin. The experiment in a line: In vitro inhibition assay, furin, Boc-RVRR-AMC. The format is biochemical. On the procedure:
as §1

Read-outs that look alike come from different tables or passages of the source. Some results are limits rather than exact numbers.

T4 sequence (P09958 108-794): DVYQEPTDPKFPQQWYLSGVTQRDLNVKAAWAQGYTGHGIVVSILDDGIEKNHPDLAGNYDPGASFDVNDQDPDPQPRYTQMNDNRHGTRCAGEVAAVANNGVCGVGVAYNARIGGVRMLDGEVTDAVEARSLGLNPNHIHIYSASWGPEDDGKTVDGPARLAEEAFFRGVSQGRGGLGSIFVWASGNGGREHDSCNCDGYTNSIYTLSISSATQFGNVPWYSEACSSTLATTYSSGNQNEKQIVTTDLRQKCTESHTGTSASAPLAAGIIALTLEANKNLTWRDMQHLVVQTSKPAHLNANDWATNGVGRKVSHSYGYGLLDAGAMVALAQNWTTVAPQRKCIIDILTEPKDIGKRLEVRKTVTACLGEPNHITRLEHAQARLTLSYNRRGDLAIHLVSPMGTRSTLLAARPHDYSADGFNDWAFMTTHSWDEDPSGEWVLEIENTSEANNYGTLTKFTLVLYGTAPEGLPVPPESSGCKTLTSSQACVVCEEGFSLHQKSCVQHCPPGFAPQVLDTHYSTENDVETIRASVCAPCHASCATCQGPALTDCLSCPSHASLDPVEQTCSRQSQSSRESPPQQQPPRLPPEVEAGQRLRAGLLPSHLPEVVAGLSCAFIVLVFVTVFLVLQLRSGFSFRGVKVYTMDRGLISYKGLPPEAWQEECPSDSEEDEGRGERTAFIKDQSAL

As a reminder, the IC50 is the concentration that gives 50% inhibition. In general, Ki refers to the equilibrium dissociation constant of an inhibitor or competing ligand from its target. Regarding `N=C(N)NCCCCC(=O)N[C@@H](CCC(N)=O)C(=O)N[C@@H](Cc1ccccc1)C(=O)N[C@@H](CCCNC(=N)N)C(=O)c1nc2ccccc2s1` [Compound N-0130, (H)-RQFR-Kbt], at WT TMPRSS13, the remaining activity at 10 µM came out at 18.4% and the IC50 came to 192 nM. Besides, on matriptase [1], the inhibitory constant (Ki) was 0.13 ± 0.03 nM and the “Ki Matriptase” value was “subnanomolar”. The Ki on thrombin [2] was 8230 ± 1550 nM. Also, the Ki on furin [3] is more than 10000 nM.

Turning to `N=C(N)NCCCCC(=O)N[C@@H](CCC(N)=O)C(=O)N[C@@H](CCc1ccccc1)C(=O)N[C@@H](CCCNC(=N)N)C(=O)c1nc2ccccc2s1` [Compound N-0430, (H)-RQhFR-Kbt], the figures for the Ki on matriptase [4], at thrombin [5] and on furin [6] were 0.28 ± 0.05 nM, more than 10000 nM and more than 10000 nM, respectively. Moreover, at matriptase [4], the “Ki Matriptase” value is on record as “subnanomolar”. For the same compound, the concentration for half-maximal inhibition (IC50) at WT TMPRSS13 was 53 nM. In addition, the remaining activity at 10 µM at WT TMPRSS13 (Vero) worked out at 9%.
